# According to US20210220331A1, “INHIBITORS OF IRES-MEDIATED PROTEIN SYNTHESIS” (The Regents of the University of California, priority 2016, published 2021):
# Experiments:
# Assay type in all cases: cell-based
# human cyclin D1 IRES = assay: Dicistronic IRES mRNA reporter assay (firefly luciferase), cyclin D1 IRES; details: LN229; relative to values obtained with parent compound C11
# Protocol: (§1) Western blot and quantitative RT-PCR analyses were performed as previously described (19). For Western blotting, cells or tissues were lysed in RIPA (lysis) buffer containing protease inhibitor cocktail and phosSTOP phosphatase inhibitor cocktail (Roche) and extracts resolved by SDSPAGE. Proteins were transferred to PVDF membranes and incubated with the indicated antibodies. For IRES reporter assays, the indicated mRNA reporters were cotransfected into cells with pSVβ-galactosidase to normalize for transfection efficiency as described previously (16). Cells were harvested 18 h following transfection and Renilla, firefly and β-galactosidase activities determined using the Dual-Glo Luciferase and β-galactosidase assay systems (Promega).
# (§2) (B) Schematic diagrams of the dicistronic constructs used in this study. Constructs used are pRF, pRCD1F, which contains the human cyclin D1 IRES, pRmycF, containing the human c-myc IRES, pRp27F, containing the human p27Kip1 IRES and pRECMVF, containing the IRES from encephalomyocarditis virus. (C) Relative Renilla and firefly luciferase activities obtained from LN229 GBM cells transfected with the indicated constructs in the absence or presence of the inhibitor C11. The mean and +SD are shown for three independent experiments. […] (D) RNA-pull down assays utilizing biotinylated cyclin D1 or c-MYC IRES RNAs. Cytoplasmic extracts of LN229 cells treated with C11 (50 nM) as indicated were incubated with biotinylated cyclin D1 or c-MYC IRES RNAs and precipitated with streptavidin-Sepharose beads. Input and bound fractions were analyzed by immunoblotting using hnRNP A1 antibodies. […] RT-PCR measurements were performed in quadruplicate and the mean and +S.D. are shown. […] (F) Top panel, LN229 cells were treated with C11 as indicated and RT-PCR splicing analysis for Max exon 5 performed as described in the Experimental Methods section. Middle panel, LN229 cells treated with C11 (50 nM) as indicated, were lysed and immunoprecipitated using either eIF-4E or control IgG antibodies. Bound CCND1 or c-MYC RNAs were detected via RT-PCR. The mean and +S.D. are shown for three independent experiments. Bottom panel, cyclin D1 and c-MYC protein levels from the indicated GBM cell lines in the absence or presence of C11 at 24 h following treatment. C11 specifically blocks c-Myc IRES-mediated translation initiation by disrupting the ITAF hnRNP A1-IRES interaction.
# (§3) Several dicistronic IRES mRNA reporter constructs were utilized, shown in FIG. 1B, in which the indicated IRES sequences were inserted within the intercistronic region. LN229 cells transiently transfected with these constructs were assayed for Renilla and firefly luciferase activities, which are readouts of cap-dependent and IRES-mediated translation initiation, respectively (16). […]
# human c-myc IRES = assay: Dicistronic IRES mRNA reporter assay (firefly luciferase), c-myc IRES; details: LN229; relative to values obtained with parent compound C11
# Protocol: as §1, §2, §3
# LN229 cells [1] = assay: Combination analysis with PP242 (XTT, combination index) in LN229; details: combination of PP242 and analog, CI=1.0 dose additive, CI<0.5 synergy, CI<0.3 strong synergy
# Description: Fold decrease in either PP242-induced cyclin D1 or c-MYC IRES activity in LN229 relative to values obtained with the parent compound C11 are shown for each analog. […] CI=1.0 (dose additive), CI<0.5 (synergy), CI<0.3 (strong synergy).
# The structure-activity relationships (SAR) for C11 and related compounds were investigated by synthesizing and testing the analogs listed in Table 1. […] The degree of apoptotic cell death following co-treatment with analog and PP242 was also monitored.
# LN229 cells [2] = assay: Apoptosis via Annexin V staining in LN229; details: LN229 cotreated with PP242 (50 nM) and analog (100 nM), 24 h
SMILES,Cyclin D1 (decrease): fold decrease in PP242-induced cyclin D1 IRES activity (human cyclin D1 IRES),c-myc (decrease): fold decrease in PP242-induced c-MYC IRES activity (human c-myc IRES),"CI ED50, 1:100 (combination index) (LN229 cells [1])",% Apoptosis (100 nM) (LN229 cells [2])
"COc1ccc(CN2C(=O)C=CC2=O)c(OC)c1 [IRES-J000, 1-((2,4-Dimethoxyphenyl)methyl)-1H-pyrrole-2,5-dione]",1.05 ± 0.21 fold,1.01 ± 0.03 fold,0.51,25.6%
"O=C1C=CC(=O)N1Cc1ccccc1 [IRES-J001, 1-Phenylmethyl-1H-pyrrole-2,5-dione]",1.49 ± 0.05 fold,1.12 ± 0.13 fold,0.89,30.2%
"COc1ccc(CN2C(=O)C=CC2=O)cc1 [IRES-J002, 1-((4-Methoxyphenyl)methyl)-1H-pyrrole-2,5-dione]",1.60 ± 0.18 fold,1.37 ± 0.21 fold,0.86,28.6%
"O=C1C=CC(=O)N1Cc1ccc(F)cc1 [IRES-J003, 1-((4-Fluorophenyl)methyl)-1H-pyrrole-2,5-dione]",0.97 ± 0.06 fold,1.19 ± 0.04 fold,0.88,27.1%
"COc1ccc(CN2C(=O)C(C)=C(C)C2=O)c(OC)c1 [IRES-J004, 1-((2,4-Dimethoxyphenyl)methyl)-3,4-dimethyl-1H-pyrrole-2,5-dione]",1.42 ± 0.07 fold,1.39 ± 0.11 fold,0.82,24.8%
"COc1ccc(CN2C(=O)C(c3ccccc3)=C(c3ccccc3)C2=O)c(OC)c1 [IRES-J005, 1-((2,4-Dimethoxyphenyl)methyl)-3,4-diphenyl-1H-pyrrole-2,5-dione]",1.32 ± 0.14 fold,1.28 ± 0.16 fold,0.91,23.5%
"COc1ccc(CN2C(=O)CCC2=O)c(OC)c1 [IRES-J006, 1-((2,4-Dimethoxyphenyl)methyl)pyrrolidine-2,5-dione]",1.26 ± 0.10 fold,1.25 ± 0.19 fold,0.94,20.1%
"COc1ccc(N2C(=O)C=CC2=O)cc1 [IRES-J008, 1-(4-Methoxyphenyl)-1H-pyrrole-2,5-dione]",5.58 ± 0.16 fold,5.92 ± 0.10 fold,0.39,75.7%
"O=C1c2ccccc2C(=O)N1Cc1ccccc1 [IRES-J010, 2-(Phenylmethyl)isoindoline-1,3-dione]",1.77 ± 0.16 fold,1.94 ± 0.25 fold,0.83,19.7%
"O=C1c2ccccc2C(=O)N1Nc1ccccc1 [IRES-J011, 2-(Phenylamino)isoindoline-1,3-dione]",1.91 ± 0.1 fold,1.64 ± 0.18 fold,0.86,22.8%
"O=C1c2ccccc2C(=O)N1N(c1ccccc1)c1ccccc1 [IRES-J012, 2-(Diphenylamino)isoindoline-1,3-dione]",1.02 ± 0.31 fold,1.53 ± 0.17 fold,0.89,20.1%
"COc1ccc(N2C(=O)c3ccccc3C2=O)cc1 [IRES-J013, 2-(4-Methoxyphenyl)isoindoline-1,3-dione]",1.17 ± 0.21 fold,1.72 ± 0.06 fold,0.85,19.2%
"CN(C)c1ccc(N2C(=O)c3ccccc3C2=O)cc1 [IRES-J014, 2-(4-(Dimethylamino)phenyl)isoindoline-1,3-dione]",1.86 ± 0.27 fold,1.33 ± 0.11 fold,0.84,20.6%
"COCCCN1C(=O)c2ccccc2C1=O [IRES-J015, 2-(3-Methoxypropyl)isoindoline-1,3-dione]",1.61 ± 0.15 fold,1.25 ± 0.24 fold,0.88,18.3%
